The values that follow come from patent publication US5767291A, “Phenyl heterocycles as cox-2 inhibitors” (Merck Frosst Canada, Inc., priority 1996, dated 1998).

For assay [1], the target named is T1, cyclooxygenase-2 (COX-2) (Homo sapiens, UniProt P35354).
T1 construct: human osteosarcoma 143 cells (which specifically express cyclooxygenase-2); endogenous in cells; host or cells: human osteosarcoma 143 cells (whole cells, and microsomes prepared from them)
T1 sequence (P35354 18-604): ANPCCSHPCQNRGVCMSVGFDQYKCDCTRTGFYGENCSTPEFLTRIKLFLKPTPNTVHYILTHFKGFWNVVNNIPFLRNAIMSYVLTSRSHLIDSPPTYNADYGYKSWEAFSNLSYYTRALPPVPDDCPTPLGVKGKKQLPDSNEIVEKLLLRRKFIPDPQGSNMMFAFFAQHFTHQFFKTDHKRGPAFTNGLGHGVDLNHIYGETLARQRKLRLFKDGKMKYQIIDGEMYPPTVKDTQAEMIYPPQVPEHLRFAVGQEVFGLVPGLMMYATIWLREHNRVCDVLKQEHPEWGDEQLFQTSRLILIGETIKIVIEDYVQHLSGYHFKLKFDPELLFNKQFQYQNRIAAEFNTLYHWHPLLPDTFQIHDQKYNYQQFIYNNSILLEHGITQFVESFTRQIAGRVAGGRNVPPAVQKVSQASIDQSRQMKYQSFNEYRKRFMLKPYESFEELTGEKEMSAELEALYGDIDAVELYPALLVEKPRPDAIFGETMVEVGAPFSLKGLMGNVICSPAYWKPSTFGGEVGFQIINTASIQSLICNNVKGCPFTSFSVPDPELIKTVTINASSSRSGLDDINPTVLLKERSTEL
The assay can be described thus: Whole cell cyclooxygenase assay, COX-2 (PGE2 synthesis in response to arachidonic acid, radioimmunoassay), human osteosarcoma 143 cells. The format is cell-based. As to conditions: read-out: Whole Cells COX-2 % inhib.; for inhibition at 0.01 µM: 10 nM; for inhibition at 0.1 µM: 100 nM. How it is done:
(§1) Compounds were tested as inhibitors of cyclooxygenase activity in whole cell and microsomal cyclooxygenase assays. Both of these assays measured prostaglandin E2 (PGE2) synthesis in response to arachidonic acid, using a radioimmunoassay. Cells used for whole cell assays, and from which microsomes were prepared for microsomal assays, were human osteosarcoma 143 cells (which specifically express cyclooxygenase-2) and human U-937 cells (which specifically express cyclooxygenase-1). In these assays, 100% activity is defined as the difference between prostaglandin E2 synthesis in the absence and presence of arachidonate addition.

In assay [2] the target is T2, cyclooxygenase-1 (COX-1) (Homo sapiens, UniProt P23219).
T2 construct: human U-937 cells (which specifically express cyclooxygenase-1); endogenous in cells; host or cells: human U-937 cells (whole cells, and microsomes prepared from them)
T2 sequence (P23219 24-599): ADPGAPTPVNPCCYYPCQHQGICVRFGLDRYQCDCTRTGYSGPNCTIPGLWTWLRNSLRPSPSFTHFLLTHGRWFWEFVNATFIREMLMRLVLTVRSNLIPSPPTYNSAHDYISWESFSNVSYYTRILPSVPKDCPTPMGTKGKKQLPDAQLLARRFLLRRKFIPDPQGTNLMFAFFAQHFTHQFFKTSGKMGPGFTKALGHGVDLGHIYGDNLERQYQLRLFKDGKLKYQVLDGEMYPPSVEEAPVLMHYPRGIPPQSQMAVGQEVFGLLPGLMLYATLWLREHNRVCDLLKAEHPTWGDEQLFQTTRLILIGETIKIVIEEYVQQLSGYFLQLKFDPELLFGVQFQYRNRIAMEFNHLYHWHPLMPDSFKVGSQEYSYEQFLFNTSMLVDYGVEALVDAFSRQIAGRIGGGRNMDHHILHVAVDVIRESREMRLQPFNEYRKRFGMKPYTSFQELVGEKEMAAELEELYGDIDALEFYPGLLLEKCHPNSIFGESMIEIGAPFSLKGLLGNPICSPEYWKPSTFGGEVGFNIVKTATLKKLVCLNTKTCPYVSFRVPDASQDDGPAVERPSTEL
Kind of assay: Whole cell cyclooxygenase assay, COX-1 (PGE2 synthesis in response to arachidonic acid, radioimmunoassay), human U-937 cells. Format: cell-based. The settings on record: read-out: Whole Cells COX-1 % inhib.; for inhibition at 0.01 µM: 10 nM; for inhibition at 0.1 µM: 100 nM. How it is done: as §1

Assay [3] concerns the target T1, cyclooxygenase-2 (COX-2). Kind of assay: Microsomal cyclooxygenase assay, COX-2 (PGE2 synthesis, microsomes of human osteosarcoma 143 cells). Format: biochemical. As to conditions: read-out: Microsomes COX-2 % inhib.; for inhibition at 0.01 µM: 10 nM. Here is the method: as §1
In assay [4] the target is T2, cyclooxygenase-1 (COX-1). Kind of assay: Microsomal cyclooxygenase assay, COX-1 (PGE2 synthesis, microsomes of human U-937 cells). Format: biochemical. The settings on record: read-out: Microsomes COX-1 % inhib.; for inhibition at 0.01 µM: 10 nM. How it is done:
as §1

SMILES strings stand for the structures.

In the case of `NS(=O)(=O)c1ccc(-c2ccsc2-c2ccc(F)cc2)cc1` [Example 2, 3-(4-(Aminosulfonyl)phenyl)-2-(4-fluorophenyl)thiophene], the inhibition at 0.01 µM was determined as 69% on cyclooxygenase-2 (COX-2) [1], 0% at cyclooxygenase-1 (COX-1) [2], 49% at cyclooxygenase-2 (COX-2) [3] and 25% at cyclooxygenase-1 (COX-1) [4].

Take `CS(=O)(=O)c1ccc(C2=C(c3ccc(F)cc3)C(=O)CC2)cc1` [Example 7, 2-(4-Fluorophenyl)-3-(4-(methylsulfonyl)phenyl)-2-cyclopenten-1-one]: the inhibition at 0.1 µM turned out to be 74% on cyclooxygenase-2 (COX-2) [1] and 0% at cyclooxygenase-1 (COX-1) [2]. Further, the figures for the inhibition at 1 µM at cyclooxygenase-2 (COX-2) [3] (1000 nM) and on cyclooxygenase-1 (COX-1) [4] (1000 nM) were 58% and 16%, respectively.

Regarding `CS(=O)(=O)c1ccc(-c2cc(C(=O)O)sc2-c2ccc(C(=O)O)cc2)cc1` [Example 5, 5-(4-Carboxyphenyl)-4-(4-(methylsulfonyl)phenyl)thiophene-2-carboxylic acid], the inhibition at 0.01 µM on cyclooxygenase-2 (COX-2) [1] was 0%; on cyclooxygenase-1 (COX-1) [2], 0%; on cyclooxygenase-2 (COX-2) [3], 43%; at cyclooxygenase-1 (COX-1) [4], 31%.

As for `CC(C)(O)c1cc(-c2ccc(S(N)(=O)=O)cc2)c(-c2ccc(F)cc2)s1` [Example 1], the inhibition at 0.1 µM amounted to 96% at cyclooxygenase-2 (COX-2) [1], 12% at cyclooxygenase-1 (COX-1) [2], 53% on cyclooxygenase-2 (COX-2) [3] (100 nM) and 8% at cyclooxygenase-1 (COX-1) [4] (100 nM).
